# Values joined by “and” are separate entries in the source; they are usually repeats but may differ in a detail not shown here. Equal values may be shown once.
# Experiments:
# [1] = tested on: C3H10T1/2 mesenchymal stem cells; assay: Brown fat differentiation of C3H10T1/2 mesenchymal stem cells (Oil Red O, immunoblot, qRT-PCR, MitoTracker); type: cell-based, mouse
# Description: OXR1 expression was confirmed in the undifferentiated mesenchymal stem cell line C3H10T1/2 cells (ATCC). Cells were grown to 50-70% confluence in high glucose DMEM supplemented with 10% FBS and differentiated in standard induction media supplemented with 100 nM human orexin A (cat. No. 24470, Anaspec), vehicle, or recombinant human BMP-7 (cat. No. 4579, BioVision, a potent inducer of […] differentiation) for three days, at which time cells reached 100% confluence. Cells were then incubated in adipogenic media for 7 days in the absence of […]. Cells were then stained with Oil Red O according to the following protocol. Cells were washed twice with phosphate-buffered saline (PBS), fixed with 10% buffered formalin for 1 hour at room temperature, washed twice in PBS, stained for 30 minutes at room temperature with a filtered Oil red O (Sigma) solution (0.5% Oil red O in isopropyl alcohol), washed twice with PBS, and stored in PBS for visualization under the inverted microscope (Olympus).
# Following OX treatment, greater than 90% of cells differentiated from an elongated fibroblastic morphology to a spherical one typical of differentiated fat cells. OXR1 expression in the differentiated mesenchymal cells was done using RT-PCR analysis of the OXR1 mRNA. FIG. 4 provides the Ct value OXR1 and the Ct value for 18S RNA is shown for comparison.
# To determine triglyceride content, BAT was homogenized in 1 ml of saline solution and Triglycerides Reagent Kit (Pointe Scientific) was used to determine triglyceride concentration in the tissue.
# Protein extracts from the treated mesenchymal cells was used to assess the expression of early adipogenic transcription factors that are known to function in adipogenesis. Specifically, immunoblotting was used to assess the expression of C/ebp-alpha, Ppar-γ1, Prdm16, Pgc1-alpha, and Ucp1 in the differentiated mesenchymal stem cells.
# The expression of several adipogenic inhibitors was assessed in the differentiated mesenchymal stem cells and control cells by qRT-PCR. Undifferentiated C3H10T1/2 cells abundantly express Necdin, preadpocyte factor-1 (Pref-1), and Wnt10a, all of which inhibit early adipogenic events. Preadipocytes must counteract an adipogenic block imposed by these factors in order to differentiate. […] FIG. 6 illustrates results from a PCR analysis of adipogenic inhibitors in C3H10T1/2 cells treated with BMP-7 or OX for 3 days followed by adipogenic induction for 7 days. Data are expressed as arbitrary units after normalization to 18S RNA.
# The cultured mesenchymal stem cells were assessed for the expression of a variety of regulators of adipogenesis and mitochondrial function, qRT-PCR was performed as follows: RNA was isolated using Trizol lysis reagent (Qiagen) and purified by RNeasy Mini columns (Qiagen), cDNA was produced using an RT-PCR kit (Applied Biosystems) and primers synthesized by Integrated DNA Technologies, and PCR reactions were run in duplicate for each sample and quantified in the ABI Prism 7000 Sequence Detection System (Applied Biosystems) The expression of each RNA was normalized to the 18S RNA level.
# Important adipogenic regulators such as C/ebp. […] Mitochondiral transcription factor (Tfam), cytochrome oxidase (Cox7a, Cox8b) and deiodinase-2 expression were elevated before exposure to adipogenic media, as shown in FIG. 10. […] Expression of stearoyl-CoA desaturase (Scd), an enzyme catalyzing the rate-limiting step in lipid biosynthesis, was also elevated over 100-fold during differentiation. mRNAs encoding other markers fatty acid oxidation such as Lp1, Sirt3, Adam15-1 and Adam15-2, and Adipor1 were enriched in differentiated mesenchymal stem cells following OX treatment (FIG. 11).
# Based on the foregoing studies, three features distinguish BAT from WAT: the appearance of multilocular oil droplets, mitochondrial enrichment, and Ucp-1 expression. […]
# C3H10T1/2 cells = assay: Oxygen consumption / uncoupled respiration of cultured mesenchymal stem cells; type: cell-based, mouse
# Excerpt: To determine whether the increased respiration was uncoupled from ATP synthesis, oligomycin-insensitive respiration was first assayed as a measure of uncoupled respiration. Oligomycin inhibits F1 ATP synthetase to suppress only oxidative phosphorylation-associated respiration.
# C57BL/6 mice = assay: Single intraperitoneal OX injection, indirect calorimetry (CLAMS) and iBAT analysis; type: in vivo; conditions: single 30 mg kg−1 i.p. dose
# Description: One dose of 30 mg kg^−1 OX was administered intraperitoneally in a single dose to 6-8 week C57BL/6 mice, and metabolic rates and energy expenditure of those mice were then compared to 1 mg kg^−1 isoproterenol- or vehicle (PBS) control-injected mice. Isoproterenol is a beta-sympathomimetic and serves as a reference for Ucp1 expression and brown fat activity. Metabolic rates were measured by indirect calorimetry using the Comprehensive Lab Animal Monitoring System (CLAMS, Columbus Instruments). Food and water were available ad libitum. Mice were acclimatized to individual cages for 24 hours prior to recording, and then underwent 24 hours of monitoring.
# Increased energy expenditure was positively correlated with iBAT lipolysis, as evident from depletion of fat droplets. […] As a consequence, core body temperature was elevated by OX injection.
# obese wild type B6 mice = assay: Reversal of diet-induced obesity, OX twice weekly for 4 wks after 17 weeks HFD (Example 13); type: in vivo
# Description: To confirm that systemic OX therapy induces weight loss in obese mice, wild type B6 mice were fed a HFD for 17 weeks and treated either with OX (10 mg/kg) or PBS vehicle twice weekly for 4 wks (n=6 mice/group). […] The OX-injected group began losing body weight from week 1. At the end of the 4-week treatment regimen, the OX-injected population appeared considerably leaner than the vehicle-injected controls, and the former had lost about 10 g body weight, as shown in FIG. 29A. […] Enhancement of energy expenditure was not due to any increase in physical activity (FIG. 29C).
# To evaluate changes associated with weight loss, OX-treated and untreated mice were compared at autopsy. Untreated mice fed a high fat diet had developed fatty livers, which were visibly paler in color than those from OX-treated mice (FIG. 29E).
# [2] = cited from earlier work
# [3] = end of 4-week treatment, OX 10 mg/kg twice weekly
substance,measurement,setting,value
"orexin-A (EPLPDCCRQKTCSCRLYELLHGAGNHAAGILTL) [OX, human orexin A, cat; No. 24470, Anaspec]",cells differentiated from fibroblastic to spherical morphology typical of differentiated fat cells,"[1]; 100 nM OX 3 days, then adipogenic media 7 days",greater than 90%
same,mitochondrial biogenesis,[1]; MitoTracker staining,induced extensive mitochondrial biogenesis
same,"expression of stearoyl-CoA desaturase (Scd), elevation",[1]; during differentiation,over 100 fold
same,rate and extent of cytoplasmic triglyceride accumulation,[1]; following OX treatment,comparable to that seen following treatment with BMP-7
same,"expression of adipogenic transcription factors C/ebp-alpha, Ppar-γ1, Prdm16, Pgc1-alpha, Ucp1",[1]; immunoblotting,comparable to that induced by BMP-7
same,Ucp-1 and deiodinase type 2 mRNA expression,[1]; qRT-PCR,induced
same,"mRNAs encoding inhibitory factors Necdin, Preadipocyte factor-1, Wnt10a","[1]; qRT-PCR, 3 days treatment then 7 days adipogenic induction",suppression
same,Pref-1 expression,"[1]; qRT-PCR, normalized to 18S RNA",decreased by two orders of magnitude
same,"adipogenic regulators C/ebp, Prdm16, Ppar-gamma, Foxc2, Zfp423","[1]; qRT-PCR, prior to suppression of adipogenic inhibitors",significantly increased
same,"oxygen consumption, higher",C3H10T1/2 cells; basal conditions,15 fold
same,oxygen consumption of treated cells in the presence of oligomycin,C3H10T1/2 cells; oligomycin,efficiently consumed oxygen
same,share of OX-induced respiration uncoupled from ATP synthesis,C3H10T1/2 cells; oligomycin-insensitive respiration,More than half
same,core body temperature,C57BL/6 mice,elevated
same,food consumption,C57BL/6 mice,increased food consumption
same,increase in whole-body energy expenditure,C57BL/6 mice,23-25%
same,oxygen consumption,C57BL/6 mice,stimulated oxygen consumption
same,physical activity,C57BL/6 mice,decreased physical activity
same,"prdm16, Pgc1-alpha, C/ebp-alpha, Dio2, Ucp-1 expression in BAT",C57BL/6 mice,induced
same,extent of iBAT lipolysis,C57BL/6 mice; isoproterenol 1 mg kg−1 reference,comparable to that induced by isoproterenol
same,amount of visceral fat,obese wild type B6 mice; 4 weeks treatment,considerably decreased
same,food intake,obese wild type B6 mice; between groups,did not differ significantly
same,lean mass or fluid content,obese wild type B6 mice; between groups,not significantly different
same,"energy expended, more than the control group",obese wild type B6 mice; calorimetric studies,17%
same,"oxygen consumed, more than the control group",obese wild type B6 mice; calorimetric studies,13%
same,body weight lost,obese wild type B6 mice; end of 4-week treatment,about 10 g
same,% body fat,obese wild type B6 mice; [3],27% and 27 ± 1.4%
same,Fat mass,obese wild type B6 mice; [3],7.9 ± 0.6
same,Lean mass,obese wild type B6 mice; [3],20.4 ± 1.3
same,Lean mass fat mass ratio,obese wild type B6 mice; [3],2.58 ± 0.2
same,Body weight,"obese wild type B6 mice; end of 4-week treatment, OX 10 mg/kg twice weekly, in g (unit assumed)",29.2 ± 0.8
same,reduction of whole body fat mass,obese wild type B6 mice; end of the study,55%
same,triglycerides within the liver,"obese wild type B6 mice; high fat diet, at autopsy",91 ± 7 µmol/g
same,iBAT mitochondrial content/activity,"obese wild type B6 mice; mitoTracker-stained iBAT sections, relative to controls",elevated mitochondrial content/activity
same,blood-brain barrier permeation,[2]; in contrast with orexin-B,blood-brain barrier permeant
same,liposolubility,[2]; versus orexin-B,higher liposolubility than orexin-B
same,stability,[2]; versus orexin-B,much more stable than Orexin-B

# Source: patent publication US20120190615A1, “METHODS AND COMPOSITIONS FOR INDUCING WEIGHT LOSS” (Sanford-Burnham Medical Research Institute, priority 2011, published 2012)
